Where “and” joins values, the source holds several entries; their conditions need not be identical. Equal values may be shown once. Entries after “also recorded” stand apart in the source; their conditions may differ.
Assays:
[1] = molecular target: Nsp3b (SARS-CoV-2 macrodomain) (Severe acute respiratory syndrome coronavirus 2, UniProt P0DTD1); experiment: biochemical; assay type: binding
[2] = test system: CHIKV (OPY1); experiment: microbe, parasite or virus in culture; assay type: cell-based; conditions: Chikungunya virus, Vero C1008, 48 h
[3] = molecular target: T1, Nsp3b (Severe acute respiratory syndrome coronavirus 2, UniProt P0DTD1); assay type: biochemical, SARS-CoV-2
[4] = molecular target: T2, CHIKV macrodomain (Chikungunya virus, UniProt Q8JUX6); conditions: cited from earlier work
[5] = molecular target: T2, CHIKV macrodomain; assay type: binding
[6] = test system: SARS-CoV-2 B.1; experiment: microbe, parasite or virus in culture; assay type: cell-based; conditions: for EC50: Severe acute respiratory syndrome coronavirus 2, VeroE6/TMPRSS2, 48 h
[7] = in vitro; conditions: African green monkey
[8] = physchem
[9] = molecular target: hMacroD2 (Homo sapiens, UniProt A1Z1Q3); assay type: binding
[10] = molecular target: SARS-CoV macrodomain (Severe acute respiratory syndrome coronavirus, UniProt P0C6X7); experiment: biochemical; assay type: binding
[11] = in vitro; conditions: African green monkey; remark: listed apart in the source
[12] = molecular target: T3, MERS-CoV macrodomain (Middle East respiratory syndrome-related coronavirus, UniProt K9N7C7); assay type: biochemical
[13] = molecular target: T3, MERS-CoV macrodomain; experiment: biochemical; assay type: binding
[14] = molecular target: Rubella virus (RuV) macrodomain (Rubella virus, UniProt Q86500); assay type: binding
[15] = molecular target: T1, Nsp3b; assay type: binding, SARS-CoV-2
[16] = test system: Nsp3b; conditions: cited from earlier work

T3 sequence (K9N7C7 1110-1276 limits assumed): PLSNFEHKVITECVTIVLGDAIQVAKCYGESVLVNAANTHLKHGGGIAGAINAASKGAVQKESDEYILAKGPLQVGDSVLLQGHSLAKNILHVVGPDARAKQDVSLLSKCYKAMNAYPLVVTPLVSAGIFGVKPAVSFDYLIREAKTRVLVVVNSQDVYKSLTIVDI
T2 sequence (Q8JUX6 1334-1493 limits assumed): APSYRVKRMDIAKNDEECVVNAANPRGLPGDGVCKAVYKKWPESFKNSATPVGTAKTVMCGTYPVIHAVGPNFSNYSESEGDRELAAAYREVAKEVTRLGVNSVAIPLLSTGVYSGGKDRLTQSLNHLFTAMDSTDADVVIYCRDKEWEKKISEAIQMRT
Chain of hMacroD2 (A1Z1Q3 7-243): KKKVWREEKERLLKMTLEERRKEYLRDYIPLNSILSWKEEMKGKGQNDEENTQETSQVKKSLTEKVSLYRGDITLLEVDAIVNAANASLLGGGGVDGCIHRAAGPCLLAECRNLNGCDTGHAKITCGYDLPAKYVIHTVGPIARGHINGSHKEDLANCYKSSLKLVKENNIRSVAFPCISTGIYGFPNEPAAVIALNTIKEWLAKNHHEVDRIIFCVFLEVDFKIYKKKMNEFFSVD
Chain of Rubella virus (RuV) macrodomain (Q86500 806-985 limits assumed): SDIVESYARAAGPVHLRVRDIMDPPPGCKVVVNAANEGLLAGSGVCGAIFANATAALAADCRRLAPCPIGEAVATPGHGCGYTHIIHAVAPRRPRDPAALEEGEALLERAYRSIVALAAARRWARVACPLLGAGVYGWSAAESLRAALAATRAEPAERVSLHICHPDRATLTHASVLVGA

Work on Nc1ncnc2c1ncn2[C@@H]1O[C@H](COP(=O)(O)OP(=O)(O)O)[C@@H](O)[C@H]1O [ADP] yielded a Kd [1] of over 10000 µM.

Compound Nc1ncnc2c1ncn2[C@@H]1O[C@H](COP(=O)(O)O)[C@@H](O)[C@H]1O [AMP] has a Kd [1] of 1900 to 2500 µM.

Nc1ncnc2c1ncn2[C@@H]1O[C@H](COP(=O)(O)OP(=O)(O)NP(=O)(O)O)[C@@H](O)[C@H]1O [APPNHP] showed a Kd [1] of 1900 to 2500 µM.

For Nc1ncnc2c1ncn2[C@@H]1O[C@H](COP(=O)(O)OP(=O)(O)OP(=O)(O)O)[C@@H](O)[C@H]1O [ATP], the Kd [1] was 1900 to 2500 µM.

NC(=O)c1nc(F)c[nH]c1=O [Favipiravir, reference compound] gave an EC50 [2] of 11.3 µM.

For N#C[C@@]1(c2ccc3c(N)ncnn23)O[C@H](CO)[C@@H](O)[C@H]1O [GS‐441524], the “reduction of the k value versus free macrodomain” value [3] is listed as 33% and the “interaction with CHIKV macrodomain” value [4] is listed as “no significant interaction; also recorded: does not bind detectably”.

N#C[C@@]1(c2ccc3c(N)ncnn23)O[C@H](COP(=O)(O)O)[C@@H](O)[C@H]1O [RMP] gave a Kd [1] of about 10 µM.

For N#C[C@@]1(c2ccc3c(N)ncnn23)O[C@H](COS(N)(=O)=O)[C@@H](O)[C@H]1O [compound 3], the “interaction by ITC” value [5] was “no interaction was observed”, the “inhibition of SARS-CoV-2” value [6] was “no measurable inhibition” and the EC50 [6] was over 40 µM. The CC50 [7] was over 40 µM, the pKa [8] was 9.37 ± 0.02 and the “interaction by ITC” value [9] was “no interaction was observed; also recorded: no binding was observed”. For the same compound, the ΔG [10] was −7.52 kcal mol^–1, the ΔH [10] was −12.5 ± 0.3 kcal mol^–1 and the “−TΔS” value [10] was 4.96 kcal mol^–1. The Kd ([10]; K D) was 3 µM and 3.08 µM, the CC50 [11] was over 40 µM and the “reduction of the k value versus free macrodomain” value [12] was 16% and ≈ 16%. The EC50 [2] was 21.8 µM, the Kd [13] was 104 ± 13 µM and the ΔG [13] was −5.43 kcal mol^–1. The “interaction by ITC” value [14] was “no interaction was observed”, the ΔG [15] was −8.28 kcal mol^–1 and the ΔH [15] was −12.00 ± 0.07 and −12.00 kcal mol^–1 and −12.00 and −12.0 ± 0.07 kcal mol^–1. For the same compound, the “ΔH compared to GS-441524” value [15] was “–6.75 kcal mol^−1”, the “−TΔS” value [15] was 3.71 kcal mol^–1 and the “reduction of the k value versus free macrodomain” value [3] was 47%.

Compound CCC(CC)COC(=O)[C@H](C)N[P@](=O)(OC[C@H]1O[C@@](C#N)(c2ccc3c(N)ncnn23)[C@H](O)[C@@H]1O)Oc1ccccc1 [remdesivir, reference compound] has an EC50 [6] of 5.48 µM.

In the case of ADP‐ribose [ADPr, reference compound], the “reduction of the k value versus free macrodomain” value [12] is reported as 32% and ≈ 32%.

For α‐azido‐ADPr, the IC50 [16] is listed as 0.49 µM.

For β‐O‐methyl‐ADPr, the IC50 [16] is given as 127 µM.

Source: article PMC12666239 (Chembiochem, 2025)
